# Assay results: patent publication US20230053437A1, “LIPID COMPOUNDS AND LIPID NANOPARTICLE COMPOSITIONS” (Suzhou Abogen Biosciences Co., Ltd., priority 2020, published 2023)
# How the values were obtained:
# Assay type in all cases: physicochemical
# [1] = Encapsulation efficiency of lipid nanoparticles, Quant-it Ribogreen RNA quantification assay; details: LNP with hEPO mRNA
# Description: (§1) Briefly, a cationic lipid provided herein, DSPC, cholesterol, and PEG-lipid were solubilized in ethanol at a molar ratio of 50:10:38.5:1.5, and mRNA were diluted in 10 to 50 mM citrate buffer, pH=4. The LNPs were prepared at a total lipid to mRNA weight ratio of approximately 10:1 to 30:1 by mixing the ethanolic lipid solution with the aqueous mRNA solution at a volume ratio of 1:3 using a microfluidic apparatus, total flow rate ranging from 9-30 mL/min. Ethanol were thereby removed and replaced by DPBS using dialysis. Finally, the lipid nanoparticles were filtered through a […] sterile filter.
# (§2) Lipid nanoparticle size were determined by dynamic light scattering using a Malvern Zetasizer Nano ZS (Malvern UK) using a 173° backscatter detection mode. The encapsulation efficiency of lipid nanoparticles were determined using a Quant-it Ribogreen RNA quantification assay kit (Thermo Fisher Scientific, UK) according to the manufacturer's instructions.
# [2] = Lipid nanoparticle size by dynamic light scattering (Malvern Zetasizer Nano ZS); details: LNP: cationic lipid/DSPC/cholesterol/PEG-lipid 50:10:38.5:1.5 with hEPO mRNA
# Description: as §1, §2
# [3] = Apparent pKa of LNP formulations, TNS fluorescence assay; details: LNP cationic lipid/DSPC/cholesterol/DMG-PEG 50/10/38.5/1.5 mol %, pH 3 to 9
# Description: As reported in literature, the apparent pKa of LNP formulations correlates with the delivery efficiency of LNPs for nucleic acids in vivo. The apparent pKa of each formulation was determined using an assay based on fluorescence of 2-(p-toluidino)-6-napthalene sulfonic acid (TNS). LNP formulations comprising of cationic lipid/DSPC/cholesterol/DMG-PEG (50/10/38.5/1.5 mol %) in PBS were prepared as described above. TNS was prepared as a 300 uM stock solution in distilled water. LNP formulations were diluted to 0.1 mg/ml total lipid in 3 mL of buffered solutions containing 50 mM sodium citrate, 50 mM sodium phosphate, 50 mM sodium borate, and 30 mM sodium chloride where the pH ranged from 3 to 9. An aliquot of the TNS solution was added to give a final concentration of 0.1 mg/ml and following vortex mixing fluorescence intensity was measured at room temperature in a Molecular Devices Spectramax iD3 spectrometer using excitation and mission wavelengths of 325 nm and 435 nm. A sigmoidal best fit analysis was applied to the fluorescence data and the pKa value was measured as the pH giving rise to half-maximal fluorescent intensity.
Encapsulation Efficiency [1] [%],polydispersity [2],size (nm) [2] [nm],Apparant Pka [3],SMILES
95.8,0.23,98.67,7.45,CCCCCCCCCCCC(=O)OCC1(COC(=O)CCCCCCCCCCC)CCN(C(=O)CCN(C)CCCNc2c(N(C)C)c(=O)c2=O)CC1 [Compound 12]
92.4,0.066,84.7,9.27,CCCCCCCCCCCC(=O)OCC1(COC(=O)CCCCCCCCCCC)CCN(C(=O)CCCN2CCCCC2)CC1 [Compound 40]
80.6,0.247,81.29,7.25,CCCCCCCCC(CCCCCC)COC(=O)CCCCCC(=O)OCC1(COC(=O)CCCCCC(=O)OCC(CCCCCC)CCCCCCCC)CCN(C(=O)CCN2CCOCC2)CC1 (stereo not drawn) [Compound 55]
80.1,0.056,92.03,6.77,CCCCCCCCCCCC(=O)OCC1(COC(=O)CCCCCCCCCCC)CCN(C(=O)CCN(CCCC)CCCC)CC1 [Compound 30]
95.5,0.127,57.44,7.09,CCCCCCCCCCCC(=O)OCC1(COC(=O)CCCCCCCCCCC)CCN(C(=O)CCN(C)CCCn2ccc(=O)[nH]c2=O)CC1 [Compound 13]
93.5,0.104,73.39,7.85,CCCCCCCCCCCC(=O)OCC1(COC(=O)CCCCCCCCCCC)CCN(C(=O)CCCN(C)C)CC1 [Compound 38]
98.8,0.096,58.53,7.30,CCCCCCCCCCCC(=O)OCC1(COC(=O)CCCCCCCCCCC)CCN(CCO)CC1 [Compound 1]
92.7,0.136,67.72,6.39,CCCCCCCCCCCC(=O)OCC1(COC(=O)CCCCCCCCCCC)CCN(C(=O)CCN(CCCCCC)CCCCCC)CC1 [Compound 31]
95.4,0.112,69.83,7.67,CCCCCCCCCCCC(=O)OCC1(COC(=O)CCCCCCCCCCC)CCN(C(=O)CCN2CCCC2)CC1 [Compound 5]
93.9,0.252,56.79,7.76,CCCCCCCCCCCC(=O)OCC1(COC(=O)CCCCCCCCCCC)CCN(C(=O)CCN(CCC)CCO)CC1 [Compound 22]
100.4,0.47,107.3,6.20,CCCCCCCCC(CCCCCC)COC(=O)CCCCCC(=O)OCC1(COC(=O)CCCCCC(=O)OCC(CCCCCC)CCCCCCCC)CCN(C(=O)CCCN(C)C)CC1 (stereo not drawn) [Compound 52]
74.0,0.127,110.4,5.90,CCCCCCCCCCCCCCCC(=O)OCC1(COC(=O)CCCCCCCCCCCCCCC)CCN(C(=O)CCN(CCCCCC)CCCCCC)CC1 [Compound 34]
88.2,0.13,93.36,6.34,CCCCCCCCCC(=O)OCC1(COC(=O)CCCCCCCCC)CCN(C(=O)CCN(CCCCCC)CCCCCC)CC1 [Compound 32]
82.5,0.135,67.82,6.81,CCCCCCCCCCCC(=O)OCC1(COC(=O)CCCCCCCCCCC)CCN(C(=O)CCN2CCOCC2)CC1 [Compound 10]
94.5,0.137,66.82,7.93,CCCCCCCCCCCC(=O)OCC1(COC(=O)CCCCCCCCCCC)CCN(CCCCO)CC1 [Compound 19]
98.2,0.101,68,9.02,CCCCCCCCCCCC(=O)OCC1(COC(=O)CCCCCCCCCCC)CCN(C(=O)CCN2CCCCCC2)CC1 [Compound 7]
96.4,0.165,64.67,7.58,CCCCCCCCCCCC(=O)OCC1(COC(=O)CCCCCCCCCCC)CCN(C(=O)CCN(CC)CCO)CC1 [Compound 3]
93.0,0.078,77.29,7.68,CCCCCCCCCCCC(=O)OCC1(COC(=O)CCCCCCCCCCC)CCN(C(=O)CCN(CCO)C(C)C)CC1 [Compound 23]
94.9,0.386,95.98,6.04,CCCCCCCCCCCC(=O)OCC1(COC(=O)CCCCCCCCCCC)CCN(C(=O)CCCN(CCO)CCCC)CC1 [Compound 37]
96.1,0.15,90.15,~12.82,CCCCCCCCCCCC(=O)OCC1(COC(=O)CCCCCCCCCCC)CCN(C(=O)CCCN2CCCCCC2)CC1 [Compound 41]
92.8,0.199,64.29,7.18,CCCCCCCCCCCC(=O)OCC1(COC(=O)CCCCCCCCCCC)CCN(C(=O)CCN(CCO)CCO)CC1 [Compound 4]
95.8,0.291,87.3,4.76,CCCCCCCCCCCC(=O)OCC1(COC(=O)CCCCCCCCCCC)CCN(C(=O)CCN(CCCCCC)CCCNc2c(N(C)C)c(=O)c2=O)CC1 [Compound 49]
93.6,0.165,71.61,7.98,CCCCCCCCCCCC(=O)OCC1(COC(=O)CCCCCCCCCCC)CCN(C(=O)CCN(CCO)CCCC)CC1 [Compound 24]
96.0,0.261,89.42,8.02,CCCCCCCCCCCC(=O)OCC1(COC(=O)CCCCCCCCCCC)CCN(C(=O)CCCN(CC)CCO)CC1 [Compound 35]
